Patent US12616681B2, “Compositions and methods for treating renal injury” (priority 2019, dated 2026)

What was measured:
[1] = system: endogenous PGE2 levels in kidney tissue; assay: Renal PGE2 levels after intraperitoneal injection in mice (Example 1); type: in vivo
Protocol: […] Protein concentrations of supernatant were determined by BCA assay (ThermoFisher Scientific, Rockford, IL). The PGE2 level was measured using a PGE2 ELISA kit (R&D Systems, Minneapolis, MN) in triplicate. PGE2 levels were expressed as nanograms of PGE2 per milligram of protein. Renal function was assessed by determining the serum levels of blood urea nitrogen (BUN; Abcam), serum creatinine (Agilent 6410 LC-MS/MS, Agilent, Santa Clara, CA), lipocalin-2 (R&D Systems), and kidney injury molecule-1 (KIM-1; R&D Systems) after reperfusion for 24 h. Measurement of serum creatinine was by HPLC. Serum creatinine was assessed using an Agilent 6410 LC-MS/MS system coupled with an Agilent 1200 series HPLC system (Agilent). The sample preparation for serum creatinine was that 50 μL of serum samples were mixed with 100 μL of acetonitrile that contained creatinine-d3 as an internal standard (5 μg/mL). The mixture was centrifuged at 13,000 rpm for 10 min after vigorous vortex, and 1 μL of supernatant was then injected into the LC-MS/MS system. The chromatography separation was performed on a Hypersil GOLD C18 column (150×2.1 mm, 3 m, Thermo Scientific) using a mobile phase of 0.1% formic acid solution and acetonitrile [70:30 (vol/vol)]. The flow rate was 0.2 mL/min. […] The multiple-reaction monitoring mode using specific precursor/production transition was used for quantification. […]

[2] = system: mice with ischemic AKI (bilateral renal IRI); assay: Renal IRI (ischemic AKI) mouse model: renal function markers; type: in vivo, C57/BL6 mice
Protocol: Briefly, mice were anesthetized with isoflurane using a vaporizer, and bilateral renal arteries were clamped for 30 min (2, 49). After the ischemic time, clamps were released to induce blood reperfusion. […] Serum and kidney tissue were collected 24 h after renal IRI. […] After reperfusion for 24 h, kidney tissues (˜20 mg) were homogenized in cold PBS containing indomethacin (10 μg/mL) and then centrifuged for 10 min at 12,000 rpm. Protein concentrations of supernatant were determined by BCA assay (ThermoFisher Scientific, Rockford, IL). The PGE2 level was measured using a PGE2 ELISA kit (R&D Systems, Minneapolis, MN) in triplicate. PGE2 levels were expressed as nanograms of PGE2 per milligram of protein. Renal function was assessed by determining the serum levels of blood urea nitrogen (BUN; Abcam), serum creatinine (Agilent 6410 LC-MS/MS, Agilent, Santa Clara, CA), lipocalin-2 (R&D Systems), and kidney injury molecule-1 (KIM-1; R&D Systems) after reperfusion for 24 h. Measurement of serum creatinine was by HPLC. Serum creatinine was assessed using an Agilent 6410 LC-MS/MS system coupled with an Agilent 1200 series HPLC system (Agilent). […] The mixture was centrifuged at 13,000 rpm for 10 min after vigorous vortex, and 1 μL of supernatant was then injected into the LC-MS/MS system. The chromatography separation was performed on a Hypersil GOLD C18 column (150×2.1 mm, 3 m, Thermo Scientific) using a mobile phase of 0.1% formic acid solution and acetonitrile [70:30 (vol/vol)]. The flow rate was 0.2 mL/min. Electrospray ionization was performed in the positive ion mode. The capillary voltage was set at 4,000 V. Nitrogen as the nebulizing gas was set at 15 psi, and the drying gas temperature was set at 300° C., with a flow rate of 6 L/min. The multiple-reaction monitoring mode using specific precursor/production transition was used for quantification. […] The peak areas for all analytes were integrated automatically using Agilent Mass Hunter Analysis software (version B.01.04).

[3] = system: mice with ischemic AKI (bilateral renal IRI); assay: Renal IRI model: proinflammatory cytokines and HMGB1; type: in vivo, C57/BL6 mice; settings: 24 h after renal IRI, vs IRI-vehicle mice
Protocol: Inflammatory cytokine mRNA and protein levels were measured by real-time PCR and ELISA. Kidney tissue and serum were harvested after reperfusion for 24 h. Total RNA was extracted from frozen kidney tissue using TRIzol reagent (ThermoFisher Scientific) according to the manufacturer's protocol. RNA was converted to cDNA using oligo-dT primers. IL-17, TNF-α, and IL-1b mRNA levels were determined by real-time PCR. Serum IL-17 (R&D Systems), TNF-α (R&D Systems), and IL-10 (R&D Systems) were measured using commercial ELISA kits according to the manufacturer's instructions.

[4] = system: mice with ischemic AKI (bilateral renal IRI); assay: Renal IRI model: PGE2 (EP1-EP4) and adenosine A2A receptor expression; type: in vivo, C57/BL6 mice
Protocol: PGE2 receptors (EP1, EP2, EP3, and EP4) and adenosineA2A receptor mRNA levels were deter-mined by real-time PCR. Their protein levels were determined by Western blot assay and immunofluorescence analysis.

[5] = system: human renal proximal tubular epithelial cells (hRPTECs); assay: hRPTEC apoptosis by flow cytometry with iodixanol; type: cell-based; settings: drug with iodixanol 50 mgI/mL, 24 h
Protocol: Human renal proximal tubular epithelial cells (hRPTECs) were purchased from the American Type Culture Collection (#PCS-400-010TM, Manassas, VA, USA). These cells were grown in 75 cm^2 flasks in Renal Epithelial Cell Basal Medium (PCS-400-030TM, ATCCVR) supplemented with Renal Epithelial Cell Growth Kit (PCS-400-040TM, ATCCVR).
After the treatment described in the section above, the hRPTECs were pelleted by centrifugation at 1800 rpm for 10 min and incubated with annexin V fluorescein isothiocyanate and propidium iodide using an Apoptosis Detection Kit I (#556547, BD Biosciences, San Jose, CA, USA) according to the manufacture's instruction. Then quantification was conducted using a FACSC flow cytometer with Cell Quest software (BD Biosciences).

[6] = system: contrast-induced acute kidney injury (CIAKI) mice; assay: CIAKI mouse model: PGE2 receptor (EP) expression in kidney tissue; type: in vivo, C57/BL6 mice; settings: CM + drug
[7] = 24 h after renal IRI, vs IRI-vehicle mice, dosing before and after IRI
[8] = pretreatment, mRNA in kidney tissue

## CCCC[S+]([O-])c1sc2nc(-c3cccs3)cc(-c3ccccc3)c2c1N (stereo not drawn) [SW033291]
[1]; 1 h after intraperitoneal 5 mg/kg
  endogenous renal PGE2 (peak): tripling
[1]; 3 h after intraperitoneal injection of 2.5 or 5 mg/kg
  renal PGE2: dose-dependent increase
[2]; [7]
  BUN (serum): significantly reducing
  KIM-1 (serum): significantly reducing
  NGAL (serum): significantly reducing
  creatinine (serum): significantly reducing
[2]; single pre-IRI dose (Pre), time course
  induction of NGAL, KIM-1, and creatinine: notable protection
[3]
  HMGB1 levels in kidney tissue: reduced
  induction of IL-10 (protein only): blocked induction
  induction of IL-17: blocked induction
  induction of TNF-α: blocked induction
[4]; 24 h, vs sham and IRI mice
  adenosine A2A receptor: induced
[4]; 24 h post-IRI
  EP4 receptor mRNA levels: significantly increased
  levels of EP2 receptors: no effect
  levels of EP3 receptors: no effect
[4]; 24 h post-IRI, vs vehicle-treated mice
  EP4 receptor protein: more than twice as high
[4]; [8]
  pre-IRI levels of A2A receptors: increased
  pre-IRI levels of EP4 receptors: increased
[5]
  apoptosis rate of hRPTECs: 10.06±0.85%
[6]
  EP3 expression: 1.00±0.02 fold
  EP4 expression level: 1.25±0.02 fold
